Data published in US20210386756A1, “IMPROVEMENTS FOR PERFORMING AND FACILITATING THE RECOVERY AFTER HEMATOPOIETIC STEM CELL TRANSPLANTATION” (Centro de Investigaciones Energéticas, Medioambientales y …, priority 2018, published 2021).

What was measured:
[1] = tested on: human cord-blood CD34+ cells; experiment: Human hematopoietic engraftment in male NSG mice transplanted with 5×10^4 human cord-blood CD34+ cells; format: in vivo, mouse
Protocol: Three-four months later, the animals were sacrificed and the human hematopoietic engraftment was analyzed by FACS. Human hematopoietic population was identified as the cells positive for hCD45-APC-Cy7 (Biolegend) and negative for mouse CD45.1-PE (Biolegend). In order to further examine the effect of the estrogen in HSCT, hematopoietic progenitors (hCD34+) and hematopoietic stem cells (hCD34+/hCD38−) were analyzed by FACS inside of the human population in the treated NSG described in Example 1.

human cord blood CD34+ = experiment: Human engraftment in male NSG mice transplanted with a limited CD34+ cell dose (5×10^3); format: in vivo, mouse
Protocol: FIG. 6A indicates the level of human engraftment, which was raised by E4 administration. […] (Kruskal-Wallis test; P=0.1150, 7-10 mice per group). […] Three-four months later, the animals were sacrificed and the human hematopoietic engraftment was analyzed by FACS. Human hematopoietic population was identified as the cells positive for hCD45-APC-Cy7 (Biolegend) and negative for mouse CD45.1-PE (Biolegend). To determine whether estrogen can improve hematopoietic reconstitution of low number of hematopoietic progenitors, male NSG were irradiated and transplanted with low doses of human cord blood CD34+ (5×103 hCD34+). The human engraftment was analyzed as described in Example 1.

[2] = tested on: human hematopoietic progenitors (CB-CD34+); experiment: LTC-IC human bone marrow-like co-culture (hMSC + hCD34+) and CFU assay; format: cell-based
Protocol: LTC-IC was established through the co-culture of human bone marrow Mesenchymal Stromal Cells (BM-MSC) and human progenitors (CB-CD34+) to research the positive effects of the estrogens in a human context, such as an in vitro human bone marrow model. LTC-ICs were treated with vehicle or 100 µM of E2 or E4 for a week. […] Cells were plated in methycellulose media with specific hematopoietic cytokines to evaluate the hematopoietic progenitor content. After 14 days, colony forming units (CFU) were counted. Data were normalized to control groups. […] 1×10^5 human mesenchymal stromal cells (hMSC) were seeded in a p6 well and irradiated with 30 Gy next day. The following day, 5×10^4 hCD34^+ were added to the hMSC in LTC-IC media: 75% α-MEM without Phenol Red (Life Technologies), 12.5% Hyclone FBS (GE Healthcare), HS (Life Technologies), β-mercaptoethanol (Life Technologies), 0.5% PS and 1×10^−6 M Hydrocortisone (Sigma-Aldrich). 100 μM of estrogens, dissolved in ethanol, was added to the co-culture for a week, and then the cells were collected and the amount of human hematopoietic progenitors were evaluated in semisolid media supplement with specific hematopoietic cytokines (H4535, StemCell Technologies) plus 8 U/ml hEPO. After fourteen days, colony-forming units (CFU) were evaluated and normalized to the control: […]

[3] = tested on: hCD34+ hematopoietic progenitors; experiment: In vitro toxicity of natural estrogens for hematopoietic progenitors (hCD34+ culture, FACS subsets); format: cell-based, human; details: for % CD34+/CD38− / % HSC / % MLP / % MPP: four days culture
Protocol: FIG. 9 relates the effect of different concentration of E1, E2, E3 and E4 in human hematopoietic progenitors. Human hematopoietic progenitors were culture in phenol red free media supplemented with 100 ng/mL SCF, 100 ng/ml FLT3L and 100 ng/ml TPO and different concentration of E1, E2, E3 and E4 (from 10 nM to 500 μM). FIG. 9A represents the fold increase of the number of hematopoietic cells after four days in culture. FIG. 9B indicates the total number of primitive hematopoietic progenitors (CD34^+/CD38^−) present in the culture, extrapolated from number of cells and the frequency of this population analyzed by FACS. […] Grey dashed lines point the value of control group, and red dashed lines indicate the initial values at day 0. (Kruskal-Wallis test; P<0.05, data from four independent experiments).
To assess the toxicity of the natural estrogens (E1, E2, E3 and E4) for hematopoietic progenitors, in vitro studies were performed. 5×10^4 hCD34^+ were cultured in a phenol red-free media, X-Vivo 20 (Lonza), in presence of 100 ng/ml SCF, 100 ng/ml FLT3L, 100 ng/ml TPO, 0.5% PS, 1% Glutamax (Thermofisher) and different concentrations of E1, E2, E3 or E4 (from 10 nM to 500 μM). Cell proliferation and immunophenotype of different hematopoietic subsets (CD34^+/CD38^−, HSC [CD34^+/CD38^−/CD45RA^−/CD90^+], Multipotent Progenitors [MPP, CD34^+/CD38^−/CD45RA^−/CD90^−], Multipotent Lymphoid Progenitors [MLP, CD34^+/CD38^−/CD45RA^+] were evaluated at day 0 and four days after culture.

[4] = relative to other estrogens; cited from earlier work

C[C@]12CC[C@@H]3c4ccc(O)cc4CC[C@H]3[C@@H]1[C@@H](O)[C@@H](O)[C@@H]2O [E4, estetrol]
Percentage in the human hematopoietic population: hematopoietic stem cells ([1]; hCD34+/hCD38−, male NSG, 5×10^4 CD34+, 2 μg daily for four days, mean +/− SEM): 0.87 +/− 0.11 (n = 11) % | Percentage in the human hematopoietic population: hematopoietic progenitors ([1]; hCD34+, male NSG, 5×10^4 CD34+, 2 μg daily for four days, mean +/− SEM): 13.94 +/− 0.85 (n = 11) % | Percentage of human hematopoietic reconstitution ([1]; male NSG, 5×10^4 CD34+, 2 μg daily for four days, three-four months later, mean +/− SEM): 47.47 +/− 6.08 (n = 9) % | Percentage in the human hematopoietic population: Lymphoid ([1]; male NSG, 5×10^4 CD34+, 2 μg daily for four days, CD19+, mean +/− SEM): 81.22 +/− 4.83 (n = 5) % | Percentage in the human hematopoietic population: Myeloid ([1]; male NSG, 5×10^4 CD34+, 2 μg daily for four days, CD33+, mean +/− SEM): 8.24 +/− 1.65 (n = 5) % | human hematopoietic progenitors (hCD34+) and human HSC (hCD34+CD38−) in the human engraftment, significance ([1]; three months post-transplant, Kruskal-Wallis P<0.05): statistically significant differences compared to controls and E2 treated group | proportion of engrafted mice (human engraftment above 0.1%) (human cord blood CD34+; 5×10^3 CB-CD34+): 70% | change of the proportion of engrafted mice versus vehicle (human cord blood CD34+; limited HPC dose, engraftment above 0.1%): almost tripled | Percentage of human hematopoietic reconstitution (human cord blood CD34+; low dose 5×103 hCD34+, mean +/− SEM): 3.20 +/− 1.43 (n = 9) % | Normalized human CFU ([2]; 100 μM estrogen for a week, CFU after fourteen days, normalized to control, mean +/− SEM): 1.98 +/− 0.23 (n = 6) | total number of primitive hematopoietic progenitors in LTC-IC ([2]; 100 μM for a week, versus vehicle): almost doubled | toxicity for hematopoietic progenitor subpopulations ([3]; 10 nM to 500 μM, in vitro): less toxic | % CD34+/CD38− ([3]; 10 nM): 13.35 ± 0.87% | % HSC ([3]; 10 nM): 1.75 ± 0.13% | % MLP ([3]; 10 nM): 4.29 ± 0.44% | % MPP ([3]; 10 nM): 4.39 ± 0.25% | % CD34+/CD38− ([3]; 100 nM): 12.60 ± 0.68% | % HSC ([3]; 100 nM): 1.67 ± 0.12% | % MLP ([3]; 100 nM): 4.42 ± 0.16% | % MPP ([3]; 100 nM): 4.35 ± 0.56% | % CD34+/CD38− ([3]; 1 μM): 12.08 ± 1.22% | % HSC ([3]; 1 μM): 1.86 ± 0.20% | % MLP ([3]; 1 μM): 3.48 ± 0.73% | % MPP ([3]; 1 μM): 4.89 ± 0.30% | % CD34+/CD38− ([3]; 10 μM): 13.62 ± 0.54% | % HSC ([3]; 10 μM): 2.03 ± 0.04% | % MLP ([3]; 10 μM): 4.30 ± 0.29% | % MPP ([3]; 10 μM): 4.57 ± 0.35% | % CD34+/CD38− ([3]; 100 μM): 17.26 ± 2.24% | % HSC ([3]; 100 μM): 3.67 ± 0.65% | % MLP ([3]; 100 μM): 5.66 ± 1.49% | % MPP ([3]; 100 μM): 3.85 ± 0.32% | % CD34+/CD38− ([3]; 500 μM): 10.82 ± 2.79% | % HSC ([3]; 500 μM): 3.76 ± 1.25% | % MLP ([3]; 500 μM): 0.89 ± 0.18% | % MPP ([3]; 500 μM): 3.11 ± 1.20% | in vivo half-life [4]: considerably longer than that of other estrogens
